Experimental data taken from patent publication US11839212B2, “Synergistic pesticidal compositions and methods for delivery of insecticidal active ingredients” (0903608 B.C. Ltd., priority 2018, dated 2023).
Where two headings read alike, the source gives them in different places.

Assays:
Experiment in all cases: Synergistic Growth Inhibition Assay (MIC and FIC index, 96-well, resazurin)
Assay type in all cases: cell-based
Fusarium oxysporum = conditions: Fusarium oxysporum, Compound B alone
Procedure, shortened: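 Checkerboard dilutions of pesticidal active plus C6–C10 (or C11/C12) aliphatic acid in 96-well plates; growth scored by resazurin colour change, optionally visual.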

Botrytis cinerea = conditions: Botrytis cinerea, 48 h, Compound B alone, 48 hours incubation, read-out: MIC (B)
Procedure, shortened: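 Checkerboard microdilution of pesticidal active ingredient combined with C6–C10 (or C11/C12) aliphatic acid against Botrytis cinerea, with growth read by resazurin colour change plus visual check. FIC index = sum of each agent's concentration in the inhibiting well divided by its MIC alone; 1 denotes additivity.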

Sclerotinia sclerotiorum = conditions: Sclerotinia sclerotiorum, […], Compound B alone, read-out: MIC (B)
Procedure, shortened: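 Checkerboard of pesticidal active ingredient combined with C6–C10 (or C11/C12) aliphatic acids in serial dilutions against Sclerotinia sclerotiorum. Growth scored by resazurin colour change plus visual inspection; FIC index is the sum of each agent's concentration divided by its MIC alone, with 1 indicating additivity.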

Alternaria solani = conditions: Alternaria solani, […], Compound B alone, 7 days incubation, read-out: MIC (B)
Method: In some embodiments, the synergistic action between the pesticidal active ingredient, and the at least one C6-C10 (or alternatively C11 or C12) saturated or unsaturated aliphatic acid components of the pesticidal compositions according to embodiments of the present disclosure was tested using a Synergistic Growth Inhibition Assay, which is derived from and related to a checkerboard assay as is known in the art for testing of combinations of antimicrobial agents. In the Synergistic Growth Inhibition Assay used in accordance with some embodiments of the present disclosure, multiple dilutions of combinations of pesticidal active ingredient and at least one C6-C10 saturated or unsaturated aliphatic acid agents are tested in individual cells for inhibitory activity against a target pest or pathogenic organism. In one such embodiment, the combinations of pesticidal active ingredient and C6-C10 (or alternatively C11 or C12) saturated or unsaturated aliphatic acid agents may preferably be tested in decreasing concentrations. In a further such embodiment, the combinations of pesticidal active ingredient and C6-C10 (or alternatively C11 or C12) saturated or unsaturated aliphatic acid agents may be tested in increasing concentrations. These multiple combinations of the pesticidal active ingredient and at least one C6-C10 (or alternatively C11 or C12) saturated or unsaturated aliphatic acid agents may be prepared in 96-well microtiter plates. In one such embodiment, the Synergistic Growth Inhibition Assay then comprises rows which each contain progressively decreasing concentrations of the pesticidal active ingredient and one or more C6-C10 (or alternatively C11 or C12) saturated or unsaturated aliphatic acid agents to test for the MIC of the agents in combination at which growth of the target pest or pathogen is inhibited. Thus, each well of the microtiter plate is a unique combination of the two agents, at which inhibitory efficacy of the combination against the target pest or pathogen can be determined.
In one embodiment according to the present disclosure, for each row of microtiter cells in the Synergistic Growth Inhibition Assay, the FIC index is calculated from the lowest concentration of the pesticidal active ingredient and one or more C6-C10 saturated or unsaturated aliphatic acid agents necessary to inhibit growth of a target pest or pathogen. The FIC of each component is derived by dividing the concentration of the agent present in that well of the microtiter plate by the minimal inhibitory concentration (MIC) needed of that agent alone to inhibit growth of the target pest or pathogen. The FIC index is then the sum of these values for both agents in that well of the microtiter plate. […] Fractional inhibitory concentration indices may then used as measure of synergy. […] When the FIC index is equal to 1, the combination is additive.
Then, serial dilutions of these initial compositions in successive wells in the row of the microtiter plate were used to assay the pesticidal composition under the same conditions to determine the concentration of the composition combining the two agents corresponding to the microtiter well in which growth inhibition of the target pest or organism ceases.
A culture of the representative fungal pathogen, namely Fusarium oxysporum, Botrytis cinerea, or Sclerotinia sclerotiorum, for example, is grown to exponential phase in potato dextrose broth (PDB).

[1] = 48 h, Table 27, 48 hours incubation, read-out: MIC (B)
[2] = 48 h, Table 32, 48 hours incubation, read-out: MIC (B)
[3] = 48 h, Table 28, 48 hours incubation, read-out: MIC (B)
[4] = 48 h, Table 29, 48 hours incubation, read-out: MIC (B)
[5] = 48 h, Table 30, 48 hours incubation, read-out: MIC (B)
[6] = 48 h, Table 31, 48 hours incubation, read-out: MIC (B)
[7] = 24 h, Table 3, 24 hour incubation, read-out: MIC(B)
[8] = 24 h, Table 4, 24 hour incubation, read-out: MIC (B)

Row | MIC (Fusarium oxysporum; [1]) [µg/mL] | MIC (Botrytis cinerea; Table 43) [µg/mL] | MIC (Botrytis cinerea; Table 44) [µg/mL] | MIC (Botrytis cinerea; Table 45) [µg/mL] | MIC (Botrytis cinerea; Table 50) [µg/mL] | MIC (Botrytis cinerea; Table 54) [µg/mL] | MIC (Sclerotinia sclerotiorum; Table 33, 7 days incubation) [µg/mL] | MIC (Sclerotinia sclerotiorum; Table 35, 7 days incubation) [µg/mL] | MIC (Alternaria solani; Table 60) [µg/mL] | MIC (Botrytis cinerea; Table 56) [µg/mL] | MIC (Fusarium oxysporum; [2]) [µg/mL] | MIC (Botrytis cinerea; Table 47) [µg/mL] | MIC (Botrytis cinerea; Table 48) [µg/mL] | MIC (Botrytis cinerea; Table 49) [µg/mL] | MIC (Sclerotinia sclerotiorum; 7 days incubation) [µg/mL] | MIC (Sclerotinia sclerotiorum; Table 37, 7 days incubation) [µg/mL] | MIC (Sclerotinia sclerotiorum; Table 38, 7 days incubation) [µg/mL] | MIC (Sclerotinia sclerotiorum; Table 41, 7 days incubation) [µg/mL] | MIC (Sclerotinia sclerotiorum; Table 39, 7 days incubation) [µg/mL] | MIC (Botrytis cinerea; Table 58) [µg/mL] | SMILES | further results
1 | 312 | 156 | 78.1 | 312 | 156 | 312 | 156 | 156 | 312 | – | – | – | – | – | – | – | – | – | – | – | C=CCCCC(=O)O [5-Hexenoic acid] | –
2 | – | – | – | – | – | – | – | – | – | 10000 | – | – | – | – | – | – | – | – | – | – | CC(O)CC(=O)O (stereo not drawn) [3-Hydroxybutyric acid, 3-hydroxybutyric acid] | MIC (Fusarium oxysporum; 48 h, Table 10, incubation 48 hours, read-out: MIC (B)): 10000 µg/mL; MIC (Fusarium oxysporum; 48 h, Table 15B, incubation 48 hours, read-out: MIC (B)): 10000 µg/mL; MIC (Botrytis cinerea; Table 51): 10000 µg/mL; MIC (Botrytis cinerea; Table 59): 5000 µg/mL; MIC (Sclerotinia sclerotiorum; Table 16, incubation 7 days): 10000 µg/mL; MIC (Sclerotinia sclerotiorum; Table 20B, incubation 7 days): 5000 µg/mL; MIC (Alternaria solani): 5000 µg/mL
3 | – | 78.1 | 78.1 | 78.1 | – | 78.1 | 19.5 | 39.1 | 78.1 | – | 156 | 78.1 | 78.1 | 78.1 | 78.1 | 78.1 | 78.1 | 39.1 | – | – | CCCCCC=CCC(=O)O [3-Nonenoic acid] | MIC (Sclerotinia sclerotiorum; Table 36, 7 days incubation): 39.1 µg/mL
4 | – | 19.5 | 78.1 | 39.1 | 39.1 | – | 19.5 | 9.77 | 78.1 | 78.1 | 156 | – | – | 78.1 | 19.5 | 39.1 | 19.5 | – | 19.5 | 156 | CCCCCCC/C=C/C(=O)O [Trans-2-decenoic acid, trans-2-decenoic acid] | MIC (Fusarium oxysporum; [7]): 36.2 µg/mL; MIC (Fusarium oxysporum; [8]): 36.2 µg/mL; MIC (Fusarium oxysporum; [5]): 78.1 µg/mL; MIC (Botrytis cinerea; Table 51): 19.5 µg/mL; MIC (Sclerotinia sclerotiorum; Table 34, 7 days incubation): 19.5 µg/mL; MIC (Sclerotinia sclerotiorum; Table 40, 7 days incubation): 19.5 µg/mL; MIC (Sclerotinia sclerotiorum; Table 42, incubation 7 days): 19.5 µg/mL; MIC (Alternaria solani): 39.1 µg/mL
5 | – | – | – | – | – | – | – | – | 156 | – | – | – | – | – | 39.1 | – | – | – | – | – | CCCCCCCCC(=O)O [Nonanoic acid, nonanoic acid] | MIC (Fusarium oxysporum; 48 h, Table 12, incubation 48 hours, read-out: MIC (B)): 312 µg/mL; MIC (Botrytis cinerea; Table 24): 156 µg/mL; MIC (Sclerotinia sclerotiorum; Table 16, incubation 7 days): 19.5 µg/mL; MIC (Sclerotinia sclerotiorum; Table 17, incubation 7 days): 78.1 µg/mL; MIC (Sclerotinia sclerotiorum; Table 19, incubation 7 days): 78.1 µg/mL; MIC (Sclerotinia sclerotiorum; Table 20A, incubation 7 days): 39.1 µg/mL
6 | – | 156 | 78.1 | 78.1 | 39.1 | – | 19.5 | – | 156 | 39.1 | 156 | 78.1 | 78.1 | 78.1 | – | – | 39.1 | 39.1 | 39.1 | 156 | CCCCCCCC/C=C/C(=O)O [Trans-2-undecenoic acid] | –
7 | 312 | 156 | 78.1 | 78.1 | 39.1 | 78.1 | 39.1 | 39.1 | 39.1 | 78.1 | 78.1 | 78.1 | 78.1 | 156 | 78.1 | 156 | 78.1 | 78.1 | 39.1 | 156 | C=CCCCCCCCC(=O)O [9-Decenoic acid, 9-decenoic acid] | MIC (Fusarium oxysporum; [7]): 71.7 µg/mL; MIC (Fusarium oxysporum; [8]): 71.7 µg/mL; MIC (Fusarium oxysporum; [3]): 312 µg/mL; MIC (Fusarium oxysporum; [5]): 156 µg/mL; MIC (Botrytis cinerea; Table 46): 39.1 µg/mL; MIC (Sclerotinia sclerotiorum; Table 36, 7 days incubation): 39.1 µg/mL; MIC (Sclerotinia sclerotiorum; Table 40, 7 days incubation): 78.1 µg/mL
8 | 312 | 78.1 | 78.1 | 78.1 | 78.1 | 39.1 | 39.1 | 39.1 | 78.1 | 78.1 | – | 78.1 | – | 78.1 | 156 | – | 39.1 | 78.1 | – | 156 | CCCCCCC=CCC(=O)O [3-Decenoic acid, 3-decenoic acid] | MIC (Fusarium oxysporum; [7]): 73.4 µg/mL; MIC (Fusarium oxysporum; [8]): 73.4 µg/mL; MIC (Fusarium oxysporum; [3]): 78.1 µg/mL; MIC (Fusarium oxysporum; [4]): 156 µg/mL; MIC (Fusarium oxysporum; [6]): 78.1 µg/mL; MIC (Botrytis cinerea; Table 53): 39.1 µg/mL; MIC (Sclerotinia sclerotiorum; Table 40, 7 days incubation): 78.1 µg/mL

Row | SMILES | MIC (Fusarium oxysporum; [1]) [µg/mL] | MIC (Botrytis cinerea; Table 43) [µg/mL] | MIC (Botrytis cinerea; Table 44) [µg/mL] | MIC (Botrytis cinerea; Table 45) [µg/mL] | MIC (Botrytis cinerea; Table 50) [µg/mL] | MIC (Botrytis cinerea; Table 54) [µg/mL] | MIC (Sclerotinia sclerotiorum; Table 33, 7 days incubation) [µg/mL] | MIC (Sclerotinia sclerotiorum; Table 35, 7 days incubation) [µg/mL] | MIC (Alternaria solani; Table 60) [µg/mL] | MIC (Botrytis cinerea; Table 56) [µg/mL] | MIC (Fusarium oxysporum; [2]) [µg/mL] | MIC (Botrytis cinerea; Table 47) [µg/mL] | MIC (Botrytis cinerea; Table 48) [µg/mL] | MIC (Botrytis cinerea; Table 49) [µg/mL] | MIC (Sclerotinia sclerotiorum; 7 days incubation) [µg/mL] | MIC (Sclerotinia sclerotiorum; Table 37, 7 days incubation) [µg/mL] | MIC (Sclerotinia sclerotiorum; Table 38, 7 days incubation) [µg/mL] | MIC (Sclerotinia sclerotiorum; Table 41, 7 days incubation) [µg/mL] | MIC (Sclerotinia sclerotiorum; Table 39, 7 days incubation) [µg/mL] | MIC (Botrytis cinerea; Table 58) [µg/mL] | further results
9 | CCCC=CCC(=O)O [3-Heptenoic acid] | 156 | 78.1 | 78.1 | – | – | – | 78.1 | 78.1 | 312 | – | – | 78.1 | – | 78.1 | 156 | – | – | 78.1 | 78.1 | – | MIC (Fusarium oxysporum; [3]): 156 µg/mL; MIC (Fusarium oxysporum; [4]): 156 µg/mL; MIC (Fusarium oxysporum; [5]): 156 µg/mL; MIC (Fusarium oxysporum; [6]): 156 µg/mL
10 | C/C=C/C=C/C(=O)O [(2E,4E)-2,4-hexadienoic acid] | 25 | 62.5 | 62.5 | – | – | – | 125 | – | 125 | 125 | – | – | – | – | – | – | – | – | – | 250 | MIC (Fusarium oxysporum; 24 h, Table 1, 24 hour incubation, read-out: MIC(B)): 125 µg/mL; MIC (Fusarium oxysporum; 24 h, Table 2, 24 hour incubation, read-out: MIC (B)): 125 µg/mL
